Assay results published in ChEMBL document CHEMBL3885881, “DrugMatrix”.

Species: Rattus norvegicus
Experiment: DrugMatrix - Regimen: Daily Repeat
Assay type: toxicity, organism-based, Sprague-Dawley
Set-up: regimen Daily Repeat, gender Male, age 6-8 weeks
Settings: in vivo, po, route oral GAVAGE, […]; for ABSOLUTE BASOPHIL / BASOPHIL / EOSINOPHIL / ERYTHROCYTE COUNT / HEMATOCRIT / HEMOGLOBIN / LEUKOCYTE COUNT / LYMPHOCYTE / MEAN CORPUSCULAR HEMOGLOBIN / MEAN CORPUSCULAR HEMOGLOBIN CONCENTRATION / MEAN CORPUSCULAR VOLUME / MONOCYTE / NEUTROPHIL / PLATELET COUNT: tissue Blood
[1] = 30 mg/kg, 120 h, tissue Plasma, dose level Low, time 5 day
[2] = 35 mg/kg, 72 h, dose level Low, time 3 day
[3] = 35 mg/kg, 72 h, tissue Plasma, dose level Low, time 3 day
[4] = 35 mg/kg, 120 h, dose level Low, time 5 day
[5] = 35 mg/kg, 120 h, tissue Plasma, dose level Low, time 5 day
[6] = 400 mg/kg, 72 h, dose level High, time 3 day
[7] = 400 mg/kg, 72 h, tissue Plasma, dose level High, time 3 day
[8] = 400 mg/kg, 120 h, dose level High, time 5 day
[9] = 400 mg/kg, 120 h, tissue Plasma, dose level High, time 5 day

`Cc1ccc(-c2cc(C(F)(F)F)nn2-c2ccc(S(N)(=O)=O)cc2)cc1` [CELECOXIB] was tested, and the ALBUMIN [1] was 3.93 G/DL, the “ALKALINE PHOSPHATASE” value [1] was 354.33 u/L and the “ASPARTATE AMINOTRANSFERASE” value [1] was 82.67 u/L. For the same compound, the “BLOOD UREA NITROGEN” value [1] was 10.67 mg/dL, the “CARBON DIOXIDE” value [1] was 25 mmol/L and the CHLORIDE [1] was 101 MEQ/L. For the same compound, the CHOLESTEROL [1] was 56.33 mg/dL, the “CREATINE PHOSPHOKINASE” value [1] was 247 u/L and the CREATININE [1] was 0.12 mg/dL. The GLUCOSE [1] was 191.67 mg/dL, the “LACTATE DEHYDROGENASE” value [1] was 107 u/L and the LIPASE [1] was 6.33 u/L. The PHOSPHORUS [1] was 12.27 mg/dL, the POTASSIUM [1] was 5.29 MEQ/L and the SODIUM [1] was 142.9 MEQ/L. For the same compound, the “TOTAL BILIRUBIN” value [1] was 0.2 mg/dL, the “TOTAL PROTEIN” value [1] was 5.8 G/DL and the “URIC ACID” value [1] was 1.67 mg/dL. The ABSOLUTE BASOPHIL [2] was 23.3 cells/µL, the BASOPHIL [2] was 0.2% and the EOSINOPHIL [2] was 0.57%. For the same compound, the “ERYTHROCYTE COUNT” value [2] was 6.93 x10E6/uL, the HEMATOCRIT [2] was 43.8% and the HEMOGLOBIN [2] was 14.23 G/DL. The “LEUKOCYTE COUNT” value [2] was 11.06 x10E3/uL, the LYMPHOCYTE [2] was 78.9% and the “MEAN CORPUSCULAR HEMOGLOBIN” value [2] was 20.57 pg. For the same compound, the “MEAN CORPUSCULAR HEMOGLOBIN CONCENTRATION” value [2] was 32.53 G/DL, the “MEAN CORPUSCULAR VOLUME” value [2] was 63.27 fL and the MONOCYTE [2] was 2.2%. For the same compound, the NEUTROPHIL [2] was 16.8%, the “PLATELET COUNT” value [2] was 1233.67 x10E3/uL and the “ALANINE AMINOTRANSFERASE” value [3] was 48 u/L. The ALBUMIN [3] was 3.53 G/DL, the “ALKALINE PHOSPHATASE” value [3] was 409.67 u/L and the “ASPARTATE AMINOTRANSFERASE” value [3] was 65 u/L. For the same compound, the “BLOOD UREA NITROGEN” value [3] was 10.33 mg/dL, the CHLORIDE [3] was 105.67 MEQ/L and the CHOLESTEROL [3] was 68.67 mg/dL. For the same compound, the “CREATINE PHOSPHOKINASE” value [3] was 192.67 u/L, the CREATININE [3] was 0.37 mg/dL and the GLUCOSE [3] was 180 mg/dL. For the same compound, the PHOSPHORUS [3] was 12.47 mg/dL, the POTASSIUM [3] was 6.47 MEQ/L and the SODIUM [3] was 146.67 MEQ/L. The “TOTAL BILIRUBIN” value [3] was 0.43 mg/dL, the “TOTAL PROTEIN” value [3] was 5.63 G/DL and the ABSOLUTE BASOPHIL [4] was 56.7 cells/µL. For the same compound, the BASOPHIL [4] was 0.5%, the EOSINOPHIL [4] was 0.17% and the “ERYTHROCYTE COUNT” value [4] was 6.92 x10E6/uL. The HEMATOCRIT [4] was 43.47%, the HEMOGLOBIN [4] was 14.1 G/DL and the “LEUKOCYTE COUNT” value [4] was 12.56 x10E3/uL. The LYMPHOCYTE [4] was 82.3%, the “MEAN CORPUSCULAR HEMOGLOBIN” value [4] was 20.4 pg and the “MEAN CORPUSCULAR HEMOGLOBIN CONCENTRATION” value [4] was 32.43 G/DL. For the same compound, the “MEAN CORPUSCULAR VOLUME” value [4] was 62.8 fL, the MONOCYTE [4] was 1.9% and the NEUTROPHIL [4] was 13.9%. The “PLATELET COUNT” value [4] was 1178.33 x10E3/uL, the “ALANINE AMINOTRANSFERASE” value [5] was 42 u/L and the ALBUMIN [5] was 3.57 G/DL. For the same compound, the “ALKALINE PHOSPHATASE” value [5] was 324.67 u/L, the “ASPARTATE AMINOTRANSFERASE” value [5] was 63.67 u/L and the “BLOOD UREA NITROGEN” value [5] was 9.67 mg/dL. The CHLORIDE [5] was 103 MEQ/L, the CHOLESTEROL [5] was 76.67 mg/dL and the “CREATINE PHOSPHOKINASE” value [5] was 179.33 u/L. It also gave a CREATININE [5] of 0.37 mg/dL, a GLUCOSE [5] of 187.33 mg/dL and a PHOSPHORUS [5] of 11.8 mg/dL. The POTASSIUM [5] was 6.73 MEQ/L, the SODIUM [5] was 146 MEQ/L and the “TOTAL BILIRUBIN” value [5] was 0.33 mg/dL. The “TOTAL PROTEIN” value [5] was 5.9 G/DL, the ABSOLUTE BASOPHIL [6] was 30 cells/µL and the BASOPHIL [6] was 0.27%. For the same compound, the EOSINOPHIL [6] was 0.6%, the “ERYTHROCYTE COUNT” value [6] was 6.71 x10E6/uL and the HEMATOCRIT [6] was 42.57%. For the same compound, the HEMOGLOBIN [6] was 14.27 G/DL, the “LEUKOCYTE COUNT” value [6] was 12.22 x10E3/uL and the LYMPHOCYTE [6] was 70.53%. For the same compound, the “MEAN CORPUSCULAR HEMOGLOBIN” value [6] was 21.27 pg, the “MEAN CORPUSCULAR HEMOGLOBIN CONCENTRATION” value [6] was 33.53 G/DL and the “MEAN CORPUSCULAR VOLUME” value [6] was 63.47 fL. For the same compound, the MONOCYTE [6] was 3.27%, the NEUTROPHIL [6] was 24.33% and the “PLATELET COUNT” value [6] was 1571.33 x10E3/uL. For the same compound, the “ALANINE AMINOTRANSFERASE” value [7] was 62 u/L, the ALBUMIN [7] was 3.4 G/DL and the “ALKALINE PHOSPHATASE” value [7] was 437.67 u/L. For the same compound, the “ASPARTATE AMINOTRANSFERASE” value [7] was 74.67 u/L, the “BLOOD UREA NITROGEN” value [7] was 9.33 mg/dL and the CHLORIDE [7] was 106.67 MEQ/L. For the same compound, the CHOLESTEROL [7] was 88.33 mg/dL, the “CREATINE PHOSPHOKINASE” value [7] was 191.67 u/L and the CREATININE [7] was 0.33 mg/dL. It also gave a GLUCOSE [7] of 177.33 mg/dL, a PHOSPHORUS [7] of 12.6 mg/dL and a POTASSIUM [7] of 6.63 MEQ/L. For the same compound, the SODIUM [7] was 145 MEQ/L, the “TOTAL BILIRUBIN” value [7] was 0.33 mg/dL and the “TOTAL PROTEIN” value [7] was 5.53 G/DL. The ABSOLUTE BASOPHIL [8] was 190 cells/µL, the BASOPHIL [8] was 1.28% and the EOSINOPHIL [8] was 0.3%. For the same compound, the “ERYTHROCYTE COUNT” value [8] was 6.61 x10E6/uL, the HEMATOCRIT [8] was 42.7% and the HEMOGLOBIN [8] was 13.26 G/DL. For the same compound, the “LEUKOCYTE COUNT” value [8] was 18.19 x10E3/uL, the LYMPHOCYTE [8] was 68.98% and the “MEAN CORPUSCULAR HEMOGLOBIN” value [8] was 20.16 pg. The “MEAN CORPUSCULAR HEMOGLOBIN CONCENTRATION” value [8] was 31.14 G/DL, the “MEAN CORPUSCULAR VOLUME” value [8] was 64.7 fL and the MONOCYTE [8] was 2.54%. The NEUTROPHIL [8] was 25.24%, the “PLATELET COUNT” value [8] was 1512.2 x10E3/uL and the “ALANINE AMINOTRANSFERASE” value [9] was 41.6 u/L. For the same compound, the ALBUMIN [9] was 3.44 G/DL, the “ALKALINE PHOSPHATASE” value [9] was 451.2 u/L and the “ASPARTATE AMINOTRANSFERASE” value [9] was 64.8 u/L. The “BLOOD UREA NITROGEN” value [9] was 11.2 mg/dL, the CHLORIDE [9] was 105.8 MEQ/L and the CHOLESTEROL [9] was 91.6 mg/dL. For the same compound, the “CREATINE PHOSPHOKINASE” value [9] was 166.4 u/L, the CREATININE [9] was 0.34 mg/dL and the GLUCOSE [9] was 185.8 mg/dL. For the same compound, the PHOSPHORUS [9] was 12.94 mg/dL, the POTASSIUM [9] was 7.1 MEQ/L and the SODIUM [9] was 151 MEQ/L. The “TOTAL BILIRUBIN” value [9] was 0.2 mg/dL and the “TOTAL PROTEIN” value [9] was 5.9 G/DL.
